Assay results: ChEMBL document CHEMBL1201862, “PubChem BioAssay data set” (2004)
Calls of active or inactive are those of the source.

How the values were obtained:
[1] = biological target: Melanin-concentrating hormone receptor 1 (Homo sapiens, UniProt Q99705); assay: Late-stage fluorescence-based counterscreen for antagonists of the G-protein coupled receptor 7 (GPR7): cell-based dose response assay to identify antagonists of the melanin-concentrating hormone receptor 1 (MCHR1). [Related pubchem assays (depositor defined):AID1861, AID1880, AID1952, AID2148, AID2251, AID2257, AID485339]; type: functional;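 also: stimulated with 30 nM MCH peptide agonist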
[2] = biological target: Heat shock 70 kDa protein 1A (Homo sapiens, UniProt P0DMV8); assay: inhibition of Hsp70 binding activity – biochemical, fluorescence polarization, SAR follow-up (AID 1072)
Estrogen receptor beta = Estrogen receptor beta (Homo sapiens, UniProt Q92731); assay: blockers of SRC-3 recruitment to ERβ – biochemical, ELISA, streptavidin-HRP readout, orthogonal assay, confirmation (AID 1060)
[3] = biological target: Induced myeloid leukemia cell differentiation protein Mcl-1 (Homo sapiens, UniProt Q07820); type: functional
[4] = biological target: Glyceraldehyde-3-phosphate dehydrogenase (Homo sapiens, UniProt P04406)
Estrogen receptor = biological target: T1, Estrogen receptor (Homo sapiens, UniProt P03372);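 also: potency for inhibiting coactivator peptide recruitment to the receptor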
T1 sequence (P03372 whole entry): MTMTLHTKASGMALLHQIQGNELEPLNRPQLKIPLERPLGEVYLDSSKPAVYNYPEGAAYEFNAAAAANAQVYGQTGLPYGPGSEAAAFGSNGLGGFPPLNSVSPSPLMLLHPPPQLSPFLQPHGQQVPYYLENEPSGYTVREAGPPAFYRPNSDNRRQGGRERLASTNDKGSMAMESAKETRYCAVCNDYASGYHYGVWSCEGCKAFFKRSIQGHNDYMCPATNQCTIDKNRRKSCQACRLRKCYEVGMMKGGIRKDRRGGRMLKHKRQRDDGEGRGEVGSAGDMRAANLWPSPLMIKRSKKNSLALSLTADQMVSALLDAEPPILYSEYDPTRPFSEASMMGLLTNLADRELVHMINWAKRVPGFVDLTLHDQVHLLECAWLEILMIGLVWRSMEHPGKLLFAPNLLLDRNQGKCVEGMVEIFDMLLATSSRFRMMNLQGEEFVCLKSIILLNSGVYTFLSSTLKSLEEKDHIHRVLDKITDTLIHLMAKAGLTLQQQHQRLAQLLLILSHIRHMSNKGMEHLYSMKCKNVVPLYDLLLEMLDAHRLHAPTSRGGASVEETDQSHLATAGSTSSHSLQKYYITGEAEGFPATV

[5] = biological target: T2, Zinc finger protein mex-5 (Caenorhabditis elegans, UniProt Q9XUB2); assay: potency of MEX-5 RNA-binding blockers – biochemical, C. elegans, fluorescence polarization, dose response (AID 1960)
T2 sequence (Q9XUB2 whole entry): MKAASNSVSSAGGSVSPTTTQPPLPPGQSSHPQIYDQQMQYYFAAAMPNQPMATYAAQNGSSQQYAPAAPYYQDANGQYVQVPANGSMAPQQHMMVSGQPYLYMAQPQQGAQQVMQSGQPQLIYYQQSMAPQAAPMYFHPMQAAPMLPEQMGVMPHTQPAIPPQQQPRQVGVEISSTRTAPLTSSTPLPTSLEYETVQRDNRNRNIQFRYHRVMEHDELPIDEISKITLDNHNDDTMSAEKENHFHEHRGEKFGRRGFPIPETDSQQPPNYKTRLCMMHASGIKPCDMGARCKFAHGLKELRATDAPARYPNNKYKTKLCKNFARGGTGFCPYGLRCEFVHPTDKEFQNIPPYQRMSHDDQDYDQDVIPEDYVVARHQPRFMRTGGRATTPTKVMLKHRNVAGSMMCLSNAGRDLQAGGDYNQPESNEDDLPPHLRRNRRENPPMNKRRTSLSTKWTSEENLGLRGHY

[6] = biological target: Heat shock cognate 71 kDa protein (Homo sapiens, UniProt P11142); assay: In Vitro Hsc70 Dose Response Fluorescence Polarization Assay. [Related pubchem assays: 1072 ]
[7] = biological target: T3, RNA-binding protein pos-1 (Caenorhabditis elegans, UniProt G5EF15); assay: disruptors of C. elegans POS-1 RNA interaction – biochemical, fluorescence polarization, dose response (AID 1964);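 also: purified POS-1 fused to maltose binding protein made in E. coli; potency of compounds blocking POS-1 binding to fluorescent RNA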
T3 sequence (G5EF15 whole entry): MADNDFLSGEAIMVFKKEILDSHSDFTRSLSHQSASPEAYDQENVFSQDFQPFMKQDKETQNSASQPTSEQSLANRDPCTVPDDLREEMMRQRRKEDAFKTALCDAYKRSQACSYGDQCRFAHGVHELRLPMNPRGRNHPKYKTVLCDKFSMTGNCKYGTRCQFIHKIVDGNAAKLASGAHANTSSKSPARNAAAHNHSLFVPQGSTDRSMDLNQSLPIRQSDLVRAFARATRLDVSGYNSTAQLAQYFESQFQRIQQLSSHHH

HEK293 [8] = assay: cells; type: functional, cell-based; conditions: Homo sapiens
[9] = biological target: Nucleotide-binding oligomerization domain-containing protein 2 (Homo sapiens, UniProt Q9HC29); assay: inhibition of NOD2-driven NF-kB reporter – cell-based, luminescence, uHTS, HEK293 (AID 1566); type: functional
HEK293 [10] = assay: cells; type: functional, cell-based; conditions: Homo sapiens; remark: listed apart in the source
HEK293 [11] = assay: inhibition of NOD1-driven NF-kB reporter – cell-based, luminescence, uHTS, primary screen (AID 1578); type: functional; conditions: Homo sapiens
Streptococcus = assay: GAS UMAA2166 growth inhibition – luminescence, BacTiterGlo, counter-screen for streptokinase expression inhibitor project, dose response (AID 1915); type: functional, organism-based;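 also: potency for reduction of bacterial viability or growth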
[12] = alpha-synuclein stem-loop luciferase translation blockers – H4 neuroglioma cells, luminescence, confirmation (AID 1988); type: functional, cell-based
[13] = luciferase reporter signal suppression in cells – H4 neuroglioma cells, luminescence, dose response (AID 1990); type: functional, cell-based
[14] = Luminescence Cell-Based Dose Response HTS to Identify Inhibitors of 5'UTR Stem-Loop Driven Prion Protein mRNA Translation in H4 Neuroglioblastoma Cells. [Related pubchem assays: 1827 (Project Summary), 1813 (Primary HTS)]; type: functional
HEK293 [15] = assay: NOD2 signaling inhibitors in MDP-stimulated cells, cell-based, uHTS, luminescence (AID 2001); type: functional; conditions: Homo sapiens
[16] = tested on: Streptococcus sp. 'group A'; assay: Streptococcus pyogenes SK(-)GAS viability under kanamycin – luminescence, BacTiterGlo, confirmation, counter-screen for streptokinase expression inhibitor project, dose response (AID 1900); type: functional, organism-based
HEK293 [17] = assay: cells; type: functional, cell-based; conditions: Homo sapiens; remark: listed apart in the source

Chain of Melanin-concentrating hormone receptor 1 (Q99705 whole entry): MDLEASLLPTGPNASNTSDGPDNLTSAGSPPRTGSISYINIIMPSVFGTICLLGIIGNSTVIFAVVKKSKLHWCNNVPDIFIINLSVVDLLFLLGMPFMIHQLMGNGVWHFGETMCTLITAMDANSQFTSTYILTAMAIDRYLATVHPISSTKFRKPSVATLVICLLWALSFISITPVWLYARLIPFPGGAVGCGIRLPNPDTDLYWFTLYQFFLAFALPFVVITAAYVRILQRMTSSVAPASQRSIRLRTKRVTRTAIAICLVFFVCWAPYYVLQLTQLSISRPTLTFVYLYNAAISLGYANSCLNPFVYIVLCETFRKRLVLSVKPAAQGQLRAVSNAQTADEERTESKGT
Chain of Heat shock 70 kDa protein 1A (P0DMV8 whole entry): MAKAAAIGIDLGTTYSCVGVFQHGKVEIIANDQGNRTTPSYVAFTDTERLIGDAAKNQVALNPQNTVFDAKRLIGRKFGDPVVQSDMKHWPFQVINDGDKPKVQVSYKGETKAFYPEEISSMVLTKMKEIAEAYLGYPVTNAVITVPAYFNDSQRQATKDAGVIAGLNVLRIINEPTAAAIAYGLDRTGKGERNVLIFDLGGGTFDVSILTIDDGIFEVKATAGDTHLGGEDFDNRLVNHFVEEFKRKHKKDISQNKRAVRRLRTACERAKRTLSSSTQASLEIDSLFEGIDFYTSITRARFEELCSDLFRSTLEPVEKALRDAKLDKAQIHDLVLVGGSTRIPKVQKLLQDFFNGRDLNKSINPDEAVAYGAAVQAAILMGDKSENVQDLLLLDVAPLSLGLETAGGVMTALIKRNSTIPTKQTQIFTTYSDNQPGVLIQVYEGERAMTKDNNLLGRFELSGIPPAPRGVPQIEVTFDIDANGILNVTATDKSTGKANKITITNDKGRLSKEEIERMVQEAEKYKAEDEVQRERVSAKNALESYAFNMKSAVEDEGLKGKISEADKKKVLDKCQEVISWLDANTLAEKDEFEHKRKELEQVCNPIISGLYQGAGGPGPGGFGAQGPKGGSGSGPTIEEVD
Chain of Induced myeloid leukemia cell differentiation protein Mcl-1 (Q07820 whole entry): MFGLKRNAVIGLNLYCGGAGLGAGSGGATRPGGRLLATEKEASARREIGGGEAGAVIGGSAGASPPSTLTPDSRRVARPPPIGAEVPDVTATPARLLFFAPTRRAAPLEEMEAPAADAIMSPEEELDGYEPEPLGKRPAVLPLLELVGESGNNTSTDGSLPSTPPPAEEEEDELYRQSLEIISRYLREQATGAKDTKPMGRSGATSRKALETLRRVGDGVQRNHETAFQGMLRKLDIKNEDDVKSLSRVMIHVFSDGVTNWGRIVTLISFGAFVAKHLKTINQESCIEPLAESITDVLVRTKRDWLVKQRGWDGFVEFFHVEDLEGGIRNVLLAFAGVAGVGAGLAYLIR
Chain of Estrogen receptor beta (Q92731 whole entry): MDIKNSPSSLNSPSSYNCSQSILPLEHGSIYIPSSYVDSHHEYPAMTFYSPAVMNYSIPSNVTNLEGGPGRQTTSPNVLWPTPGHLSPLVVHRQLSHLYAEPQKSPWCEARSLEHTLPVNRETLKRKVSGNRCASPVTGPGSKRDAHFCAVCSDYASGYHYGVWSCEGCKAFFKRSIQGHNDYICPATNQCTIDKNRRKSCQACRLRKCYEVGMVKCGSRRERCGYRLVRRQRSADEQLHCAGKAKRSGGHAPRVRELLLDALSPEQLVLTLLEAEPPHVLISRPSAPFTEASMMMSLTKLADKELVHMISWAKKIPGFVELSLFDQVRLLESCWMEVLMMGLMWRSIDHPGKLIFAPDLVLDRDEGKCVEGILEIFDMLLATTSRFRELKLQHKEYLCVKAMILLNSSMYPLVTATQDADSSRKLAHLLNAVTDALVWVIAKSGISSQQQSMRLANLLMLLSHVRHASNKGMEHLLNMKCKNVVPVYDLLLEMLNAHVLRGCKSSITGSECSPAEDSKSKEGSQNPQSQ
Chain of Heat shock cognate 71 kDa protein (P11142 whole entry, the tested form may be a part): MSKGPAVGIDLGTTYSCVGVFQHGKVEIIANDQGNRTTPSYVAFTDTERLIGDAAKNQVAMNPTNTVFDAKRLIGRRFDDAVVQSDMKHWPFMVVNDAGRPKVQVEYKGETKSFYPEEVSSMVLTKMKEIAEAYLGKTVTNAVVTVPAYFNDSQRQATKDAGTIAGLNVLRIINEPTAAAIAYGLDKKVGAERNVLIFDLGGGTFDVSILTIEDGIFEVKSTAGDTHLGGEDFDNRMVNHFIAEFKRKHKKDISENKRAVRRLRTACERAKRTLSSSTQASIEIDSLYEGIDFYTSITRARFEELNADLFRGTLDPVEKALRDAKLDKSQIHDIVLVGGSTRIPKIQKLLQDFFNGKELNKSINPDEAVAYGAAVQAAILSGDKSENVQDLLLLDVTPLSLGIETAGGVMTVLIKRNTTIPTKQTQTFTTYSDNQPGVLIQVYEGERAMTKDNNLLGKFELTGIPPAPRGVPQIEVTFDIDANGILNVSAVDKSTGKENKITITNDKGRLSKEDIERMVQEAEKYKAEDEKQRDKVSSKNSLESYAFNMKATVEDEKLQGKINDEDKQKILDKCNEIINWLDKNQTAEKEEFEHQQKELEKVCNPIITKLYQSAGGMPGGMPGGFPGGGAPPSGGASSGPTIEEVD
Chain of Nucleotide-binding oligomerization domain-containing protein 2 (Q9HC29 whole entry, the tested form may be a part): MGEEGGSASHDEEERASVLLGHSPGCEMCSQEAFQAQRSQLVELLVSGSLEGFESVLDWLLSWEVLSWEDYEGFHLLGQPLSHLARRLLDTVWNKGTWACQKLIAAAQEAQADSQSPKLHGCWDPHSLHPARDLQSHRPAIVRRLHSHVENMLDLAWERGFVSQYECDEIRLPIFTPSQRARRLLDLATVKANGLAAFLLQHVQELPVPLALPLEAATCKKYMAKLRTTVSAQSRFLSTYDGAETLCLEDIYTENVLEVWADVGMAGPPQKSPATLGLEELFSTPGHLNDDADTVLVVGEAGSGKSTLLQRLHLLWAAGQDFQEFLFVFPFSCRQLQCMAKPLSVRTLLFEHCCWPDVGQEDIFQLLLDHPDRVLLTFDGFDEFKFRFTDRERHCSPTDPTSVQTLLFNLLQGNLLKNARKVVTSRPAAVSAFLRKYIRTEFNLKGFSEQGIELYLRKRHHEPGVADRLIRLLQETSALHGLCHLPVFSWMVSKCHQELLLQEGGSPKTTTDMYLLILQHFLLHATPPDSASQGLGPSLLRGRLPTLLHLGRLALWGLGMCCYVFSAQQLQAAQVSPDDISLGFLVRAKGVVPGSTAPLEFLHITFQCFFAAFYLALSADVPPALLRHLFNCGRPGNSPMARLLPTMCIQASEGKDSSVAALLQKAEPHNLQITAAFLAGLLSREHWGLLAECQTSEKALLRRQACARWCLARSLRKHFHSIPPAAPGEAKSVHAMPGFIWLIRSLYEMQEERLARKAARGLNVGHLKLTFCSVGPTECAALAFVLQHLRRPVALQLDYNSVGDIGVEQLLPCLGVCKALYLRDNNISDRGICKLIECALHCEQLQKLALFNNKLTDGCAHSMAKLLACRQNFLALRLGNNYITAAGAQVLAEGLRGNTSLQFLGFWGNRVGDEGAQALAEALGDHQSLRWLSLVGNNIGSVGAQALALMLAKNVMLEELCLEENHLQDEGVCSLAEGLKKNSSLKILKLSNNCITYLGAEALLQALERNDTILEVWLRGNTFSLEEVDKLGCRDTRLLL
Chain of Glyceraldehyde-3-phosphate dehydrogenase (P04406 whole entry): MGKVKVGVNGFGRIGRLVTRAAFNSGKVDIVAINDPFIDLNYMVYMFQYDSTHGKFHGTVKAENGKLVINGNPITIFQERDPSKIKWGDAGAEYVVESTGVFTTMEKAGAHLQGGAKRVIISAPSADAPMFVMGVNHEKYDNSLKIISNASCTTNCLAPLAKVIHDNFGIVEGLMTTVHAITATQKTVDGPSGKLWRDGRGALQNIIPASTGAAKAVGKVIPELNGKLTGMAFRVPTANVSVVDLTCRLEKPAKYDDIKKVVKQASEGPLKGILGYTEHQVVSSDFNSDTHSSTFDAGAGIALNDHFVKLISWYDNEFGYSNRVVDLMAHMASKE

CCN(c1ccccc1)S(=O)(=O)c1ccc(Cl)c(NC(=O)c2ccc(O)nn2)c1
IC50 (cells): 32.8 µM (active)

COc1ccc(Oc2c(Cl)cnn(-c3cc(C)ccc3C)c2=O)cc1
IC50 [1]: 12.2 µM (inactive)

O=C(O)C1Nc2c(C(=O)N3CCOCC3)cccc2C2C=CCC12 (configuration not stated)
IC50 [2]: > 100 µM (not active) | IC50 (Estrogen receptor beta): 0.0407 µM (not active) | IC50 [3]: 2.78 µM (not active) | IC50 [4]: > 100 µM (not active) | IC50 (Estrogen receptor): 15.9 µM (active) | EC50 [5]: 21.3 µM (inconclusive) | IC50 [6]: > 100 µM (not active) | EC50 [7]: 45.1 µM (active)

Cc1ccc(OCCn2c(NC(=O)c3ccco3)nc3ccccc32)cc1
IC50 (HEK293 [8]): > 20 µM (inactive) | EC50 [9]: > 20 µM (inactive) | IC50 (HEK293 [10]): 4.87 µM (active) | EC50 (HEK293 [11]): 3.15 µM (active) | EC50 (Streptococcus): 3.87 µM (active) | EC50 [12]: 10.3 µM (active) | EC50 [13]: 13.1 µM (active) | EC50 [14]: 15.8 µM (active) | IC50 (HEK293 [15]): 2.41 µM (active) | EC50 [16]: 1.6 µM (active) | IC50 (HEK293 [17]): > 20 µM (inactive)

CC(C)c1ccc(-n2ncc(Cl)c(Oc3ccc(Cl)c(Cl)c3)c2=O)cc1
IC50 [1]: 15.9 µM (inactive)
